{
  "source": "paper PMC7883289",
  "about": "“Synthesis of Paeonol-Ozagrel Conjugate: Structure Characterization and In Vivo Anti-Ischemic Stroke potential” (Frontiers in Pharmacology, 2021)",
  "key": {"[1]": {"assay": "Solubility of POC in solvents (described in words)", "assay_type": "physicochemical"}, "[2]": {"system": "middle cerebral artery occlusion (MCAO) rats", "assay": "Measurement of infarct volume by TTC staining in MCAO rats", "assay_type": "in vivo", "settings": "24 h after reperfusion, single iv dose: paeonol and OS 3 mg/kg, POC 4.5 mg/kg, n = 6", "protocol": "Male Sprague Dawley (SD) rats weighing among 220 g-230 g (Anhui Medicine University, Hefei, China; certificate number: SCXK20190,003) were housed under ad libitum access to food and water with a standardized light-dark cycle condition (25 ± 2°C, 12-hour light/dark cycle). All the experimental protocols were performed in accordance with the Institutional Animal Care and Use Committee of Anhui University of Chinese Medicine (Animal ethics number: AHUCM-rats-2019001). We used the minimal number of study animals (n = 6 rats in each group for different experiments). The rats were fastened upon the operating table in a supine position after being anesthetized with 2% pelltobarbitalum natricum (50 mg/kg). After disinfection of the skin within close proximity of the operative region, the right common carotid artery (CCA), external carotid artery (ECA) and internal carotid artery (ICA) were exposed with blunt dissection. The CCA was temporarily ligated and the ECA were permanently ligated ([Liu et al., 2016]). A nylon monofilament surgical thread was introduced into the ICA to block the MCA when the blunted distal end met resistance. After 2 h of occlusion, reperfusion was accomplished to restore blood supply to the MCA area by removing the filament ([Li et al., 2009]; [Zhai et al., 2017]). […] Rats were split randomly into five groups, including the sham, model, paeonol, OS and POC group. After 2 h of reperfusion, the paeonol and OS groups received the drug by intravenous injection at a single dose of 3 mg/kg ([Imamura et al., 2003]; [Park et al., 2010]; [Gai et al., 2019]), which the doses of paeonol and OS uesd previously were benificial in rats and the dose of OS is within the clinical dose range. […] Cerebral infarction volume was determined using TTC staining. […] The infarction and total brain volume were quantified using ImageJ software. The infarct volume was calculated as a ratio of the infarcted tissue relative to the total area of the whole-brain coronal section ([Ye and Gao, 2008]; [Katayama et al., 2017]). […]"}, "TXA2": {"system": "TXA2", "assay": "ELISA assay for TXA2 in brain tissue and blood of MCAO rats", "assay_type": "in vivo", "settings": "paeonol and OS 3 mg/kg, POC 4.5 mg/kg iv, n = 6", "protocol": "Male Sprague Dawley (SD) rats weighing among 220 g-230 g (Anhui Medicine University, Hefei, China; certificate number: SCXK20190,003) were housed under ad libitum access to food and water with a standardized light-dark cycle condition (25 ± 2°C, 12-hour light/dark cycle). All the experimental protocols were performed in accordance with the Institutional Animal Care and Use Committee of Anhui University of Chinese Medicine (Animal ethics number: AHUCM-rats-2019001). We used the minimal number of study animals (n = 6 rats in each group for different experiments). The rats were fastened upon the operating table in a supine position after being anesthetized with 2% pelltobarbitalum natricum (50 mg/kg). After disinfection of the skin within close proximity of the operative region, the right common carotid artery (CCA), external carotid artery (ECA) and internal carotid artery (ICA) were exposed with blunt dissection. The CCA was temporarily ligated and the ECA were permanently ligated ([Liu et al., 2016]). […] According to the manufacturer's instructions, the levels of inflammatory cytokines (IL - 6, IL-1β, TNF-α; R&D Systems, Minneapolis, MN, United States) and TXA2 (Wuhan ColorfulGene Biological Technology Co., LTD) were detected using the commercial ELISA kits. The resultant colored products were measured the absorbance at 450 nm. […]"}},
  "data": [
    {"smiles": "COc1ccc(C(C)=O)c(OC(=O)C=Cc2ccc(Cn3ccnc3)cc2)c1", "note": "[POC, paeonol-ozagrel conjugate]", "values": [
      {"measurement": "solubility in ethyl acetate", "setting": "[1]; ethyl acetate", "value": "slightly soluble"},
      {"measurement": "solubility in methanol and ethanol", "setting": "[1]; methanol and ethanol", "value": "easily soluble"},
      {"measurement": "solubility in water", "setting": "[1]; water", "value": "almost insoluble or insoluble"},
      {"measurement": "cerebral infarction volume percentage", "setting": "[2]", "value": "11.77% ± 2.53"},
      {"measurement": "levels of TXA2 in blood (plasma)", "setting": "TXA2; blood/plasma", "value": "decreasing levels"},
      {"measurement": "levels of TXA2 in brain", "setting": "TXA2; brain tissue", "value": "decreasing levels"}
    ]}
  ]
}
